Laboratory results from US20220062240A1, “METHODS OF TREATING CANCER USING A CLK INHIBITOR” (BioSplice Therapeutics, Inc., priority 2018, published 2022).
Where two headings read alike, the source gives them in different places. Each block holds one compound with its values, some of them ahead of it.

What was measured:
CLK3 = CLK3 (Homo sapiens, UniProt P49761); assay: CLK3 kinase activity assay (Z-lyte, Ser/Thr 18 peptide)
[1] = tested on: haematopoietic & lymphoid tumors (13 cell lines); assay: CellTiter-Glo Viability Assay, haematopoietic & lymphoid tumors; format: cell-based; details: Homo sapiens, inhibition of cancer cell proliferation
[2] = tested on: pancreatic cancer (8 cell lines); assay: CellTiter-Glo Viability Assay, pancreatic cancer; format: cell-based; details: Homo sapiens, inhibition of cancer cell proliferation
all 50 cell lines = assay: CellTiter-Glo Viability Assay, average across all cell lines; format: cell-based; details: Homo sapiens; across all 50 cell lines; read-out: average EC50 for inhibition of cancer cell proliferation
How it was run: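 Luminescent ATP read-out (CellTiter-Glo) after a 4-day compound exposure at 37° C served as the viability measure. Cells were seeded at 300-3,000/well, compound wells run in duplicate against DMSO controls, and EC50 values came from fitted dose-response curves.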

[3] = tested on: lung cancer (4 cell lines); assay: CellTiter-Glo Viability Assay, lung cancer; format: cell-based; details: Homo sapiens, inhibition of cancer cell proliferation
[4] = tested on: liver cancer (3 cell lines); assay: CellTiter-Glo Viability Assay, liver cancer; format: cell-based; details: Homo sapiens, inhibition of cancer cell proliferation
MDA-MB-231-Luc = assay: CellTiter-Glo Viability Assay, breast cancer; format: cell-based; details: Homo sapiens, 96 h; MDA-MB-231-Luc, breast cancer, four days; read-out: EC50
CAMA1 = assay: CellTiter-Glo Viability Assay, breast cancer; format: cell-based; details: Homo sapiens, CAMA-1, 96 h; CAMA1, breast cancer, four days; read-out: EC50
ZR-75-1 = assay: CellTiter-Glo Viability Assay, breast cancer; format: cell-based; details: Homo sapiens, 96 h; ZR-75-1, breast cancer, four days; read-out: EC50
MCF7 = assay: CellTiter-Glo Viability Assay, breast cancer; format: cell-based; details: Homo sapiens, 96 h; MCF7, breast cancer, four days; read-out: EC50
DU4475 = assay: CellTiter-Glo Viability Assay, breast cancer; format: cell-based; details: Homo sapiens, DU-4475, 96 h; DU4475, breast cancer, four days; read-out: EC50
HCC1599 = assay: CellTiter-Glo Viability Assay, breast cancer; format: cell-based; details: Homo sapiens, 96 h; HCC1599, breast cancer, four days; read-out: EC50
T47D = assay: CellTiter-Glo Viability Assay, breast cancer; format: cell-based; details: Homo sapiens, 96 h, breast cancer, four days, read-out: EC50
BT-549 = assay: CellTiter-Glo Viability Assay, breast cancer; format: cell-based; details: Homo sapiens, 96 h; BT-549, breast cancer, four days; read-out: EC50
CLK2 = biological target: T1, CLK2 (Homo sapiens, UniProt P49760); assay: CLK2 kinase activity assay (Z-lyte, Ser/Thr 6 peptide); format: biochemical; details: recombinant CLK2 kinase, ATP 60 μM; read-out: EC50
T1 construct: purchased Thermo Fisher (Life Technologies), Z'-LYTE Kinase Assay Kits
Experimental: All reactions were performed in duplicate.

[5] = tested on: colorectal cancer (6 cell lines); assay: CellTiter-Glo Viability Assay, colorectal cancer; format: cell-based; details: Homo sapiens, inhibition of cancer cell proliferation
[6] = tested on: prostate cancer (5 cell lines); assay: CellTiter-Glo Viability Assay, prostate cancer; format: cell-based; details: Homo sapiens
[7] = tested on: ovarian cancer (4 cell lines); assay: CellTiter-Glo Viability Assay, ovarian cancer; format: cell-based; details: Homo sapiens, inhibition of cancer cell proliferation
[8] = DND41, DND-41 cell line, read-out: Haematopoietic & Lymphoid tumors, EC50 (μM) DND-41
[9] = MV4-11, MV-4-11 cell line, read-out: Haematopoietic & Lymphoid tumors, EC50 (μM) MV-4-11
[10] = Rec1, REC-1 cell line, read-out: Haematopoietic & Lymphoid tumors, EC50 (μM) REC-1
[11] = SU-DHL-4, SUDHL4 cell line, read-out: Haematopoietic & Lymphoid tumors, EC50 (μM) SUDHL4
[12] = HL-60 cell line, read-out: Haematopoietic & Lymphoid tumors, EC50 (μM) HL-60
[13] = JM1 cell line, read-out: Haematopoietic & Lymphoid tumors, EC50 (μM) JM1
[14] = JURKAT, Clone E6-1 cell line, read-out: Haematopoietic & Lymphoid tumors, EC50 (μM) JURKAT, Clone E6-1
[15] = JeKo-1 cell line, read-out: Haematopoietic & Lymphoid tumors, EC50 (μM) JeKo-1
[16] = KASUMI-1 cell line, read-out: Haematopoietic & Lymphoid tumors, EC50 (μM) KASUMI-1
[17] = Loucy cell line, read-out: Haematopoietic & Lymphoid tumors, EC50 (μM) Loucy
[18] = MOLT-4 cell line, read-out: Haematopoietic & Lymphoid tumors, EC50 (μM) MOLT-4
[19] = TF-1 cell line, read-out: Haematopoietic & Lymphoid tumors, EC50 (μM) TF-1
[20] = TOLEDO cell line, read-out: Haematopoietic & Lymphoid tumors, EC50 (μM) TOLEDO
[21] = BXPC-3, BxPC3 cell line, read-out: Pancreatic cancer, EC50 BxPC3
[22] = CAPAN-1, Capan1 cell line, read-out: Pancreatic cancer, EC50 Capan1
[23] = Capan-2, Capan2 cell line, read-out: Pancreatic cancer, EC50 Capan2
[24] = MIA PaCa-2 cell line, read-out: Pancreatic cancer, EC50 MIA PaCa-2
[25] = PANC 05.04 cell line, read-out: Pancreatic cancer, EC50 PANC 05.04
[26] = PANC-1 cell line, read-out: Pancreatic cancer, EC50 PANC-1
[27] = UPAFII cell line, read-out: Pancreatic cancer, EC50 UPAFII
[28] = A-427, A427 cell line, read-out: Lung cancer, EC50 (μM) A427
[29] = HCC78, HCC-78 cell line, read-out: Lung cancer, EC50 (μM) HCC-78
[30] = NCI-H460 cell line, read-out: Lung cancer, EC50 (μM) NCI-H460
[31] = NCI-H522 cell line, read-out: Lung cancer, EC50 (μM) NCI-H522
[32] = SNU-398, SNU398 cell line, read-out: Liver cancer, EC50 SNU398
[33] = HEPG2 cell line, read-out: Liver cancer, EC50 HEPG2
[34] = PLC/PRF/5 cell line, read-out: Liver cancer, EC50 PLC/PRF/5
[35] = HCT-116, HCT116 cell line, read-out: Colorectal cancer, EC50 (μM) HCT116
[36] = HT-29, HT29 cell line, read-out: Colorectal cancer, EC50 (μM) HT29
[37] = SW-620, SW620 cell line, read-out: Colorectal cancer, EC50 (μM) SW620
[38] = DLD-1 cell line, read-out: Colorectal cancer, EC50 (μM) DLD-1
[39] = SW48 cell line, read-out: Colorectal cancer, EC50 (μM) SW48
[40] = SW480 cell line, read-out: Colorectal cancer, EC50 (μM) SW480
[41] = DU-145, read-out: Prostate cancer EC50 Du-145
[42] = PC-3, PC3 cell line, inhibition of cancer cell proliferation, read-out: Prostate cancer EC50 PC3
[43] = 22Rv1 cell line, inhibition of cancer cell proliferation, read-out: Prostate cancer EC50 22Rv1
[44] = LNCap clone FGC cell line, inhibition of cancer cell proliferation, read-out: Prostate cancer EC50 LNCap clone FGC
[45] = VCaP (Sigma) cell line, inhibition of cancer cell proliferation, read-out: Prostate cancer EC50 VCaP (Sigma)
[46] = PA-1, PA1 cell line, read-out: Ovarian cancer, EC50 (μM) PA1
[47] = TOV112D, TOV-112D cell line, read-out: Ovarian cancer, EC50 (μM) TOV-112D
[48] = OV-90 cell line, read-out: Ovarian cancer, EC50 (μM) OV-90
[49] = OVCAR-3 cell line, read-out: Ovarian cancer, EC50 (μM) OVCAR-3

T1 sequence (P49760 whole entry): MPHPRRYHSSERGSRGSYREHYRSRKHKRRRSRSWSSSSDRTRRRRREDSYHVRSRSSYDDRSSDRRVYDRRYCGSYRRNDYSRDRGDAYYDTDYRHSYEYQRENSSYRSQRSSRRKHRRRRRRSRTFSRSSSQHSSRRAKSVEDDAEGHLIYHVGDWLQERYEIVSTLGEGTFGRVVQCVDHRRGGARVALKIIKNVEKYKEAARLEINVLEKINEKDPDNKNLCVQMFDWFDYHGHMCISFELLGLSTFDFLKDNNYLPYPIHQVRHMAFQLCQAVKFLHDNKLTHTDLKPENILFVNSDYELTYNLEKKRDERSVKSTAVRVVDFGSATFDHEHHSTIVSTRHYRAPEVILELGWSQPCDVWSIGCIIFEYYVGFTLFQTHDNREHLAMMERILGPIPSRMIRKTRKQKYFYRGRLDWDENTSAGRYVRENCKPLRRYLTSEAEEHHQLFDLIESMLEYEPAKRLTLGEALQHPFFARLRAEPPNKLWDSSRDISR
CLK3, sequence (P49761 whole entry): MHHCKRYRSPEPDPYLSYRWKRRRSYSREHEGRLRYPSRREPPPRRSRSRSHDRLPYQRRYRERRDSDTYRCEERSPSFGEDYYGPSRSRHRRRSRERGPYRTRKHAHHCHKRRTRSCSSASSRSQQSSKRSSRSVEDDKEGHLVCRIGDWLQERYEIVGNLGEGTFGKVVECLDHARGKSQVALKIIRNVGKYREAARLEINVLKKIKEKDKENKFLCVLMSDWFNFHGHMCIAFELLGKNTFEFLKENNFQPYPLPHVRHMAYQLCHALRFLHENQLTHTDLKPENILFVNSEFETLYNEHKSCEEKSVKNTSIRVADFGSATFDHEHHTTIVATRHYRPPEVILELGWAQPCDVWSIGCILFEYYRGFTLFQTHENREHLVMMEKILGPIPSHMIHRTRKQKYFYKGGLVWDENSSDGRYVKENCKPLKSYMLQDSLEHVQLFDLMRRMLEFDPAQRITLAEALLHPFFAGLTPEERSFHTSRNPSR

EC50 (CLK3): 50 nM
EC50 [1, 8]: 0.854 µM
EC50 [1, 9]: 0.069 µM
EC50 [1, 10]: 0.361 µM
EC50 [1, 11]: 0.424 µM
EC50 [1, 12]: 1.78 µM
EC50 [1, 13]: 0.375 µM
EC50 [1, 14]: 0.699 µM
EC50 [1, 15]: 0.469 µM
EC50 [1, 16]: 0.197 µM
EC50 [1, 17]: 0.368 µM
EC50 [1, 18]: 1.22 µM
EC50 [1, 19]: 0.944 µM
EC50 [1, 20]: 0.584 µM
EC50 [2, 21]: 422 nM
EC50 [2, 22]: 673 nM
EC50 [2, 23]: 495 nM
EC50 [2, 24]: 318 nM
EC50 [2, 25]: 635 nM
EC50 [2, 26]: 659 nM
EC50 [2, 27]: 660 nM
EC50 [3, 28]: 0.973 µM
EC50 [3, 29]: 1.28 µM
EC50 [3, 30]: 0.649 µM
EC50 [3, 31]: 0.312 µM
EC50 [4, 32]: 339 nM
EC50 [4, 33]: 766 nM
EC50 [4, 34]: 2190 nM
EC50 (MDA-MB-231-Luc): 890 nM
EC50 (CAMA1): 1850 nM
EC50 (ZR-75-1): 826 nM
EC50 (MCF7): 1280 nM
EC50 (DU4475): 452 nM
EC50 (HCC1599): 606 nM
EC50 (T47D): 1020 nM
EC50 (BT-549): 549 nM
EC50 (CLK2): 5.8 nM
EC50 [5, 35]: 0.294 µM
EC50 [5, 36]: 0.537 µM
EC50 [5, 37]: 0.187 µM
EC50 [5, 38]: 0.229 µM
EC50 [5, 39]: 0.12 µM
EC50 [5, 40]: 0.383 µM
EC50 [6, 41]: 734 nM
EC50 [6, 42]: 901 nM
EC50 [6, 43]: 814 nM
EC50 [6, 44]: 432 nM
EC50 [6, 45]: 1220 nM
EC50 [7, 46]: 0.71 µM
EC50 [7, 47]: 0.457 µM
EC50 [7, 48]: 0.806 µM
EC50 [7, 49]: 0.204 µM
SMILES: Cn1ncc(-c2ccc3cnc(NC(=O)C4CC5(C4)CN(CCF)C5)cc3c2)c1CN1CCCCC1 [Compound 77]
EC50 (all 50 cell lines): 684 nM

EC50 (CLK3): 38.6 nM
EC50 [1, 8]: 2.11 µM
EC50 [1, 9]: 0.879 µM
EC50 [1, 10]: 2.45 µM
EC50 [1, 11]: 2.27 µM
EC50 [1, 12]: 3.25 µM
EC50 [1, 13]: 1.19 µM
EC50 [1, 14]: 4.05 µM
EC50 [1, 15]: 0.731 µM
EC50 [1, 16]: 3.05 µM
EC50 [1, 17]: 1.6 µM
EC50 [1, 18]: 3.61 µM
EC50 [1, 19]: > 10 µM
EC50 [1, 20]: 2.8 µM
EC50 [2, 21]: 9580 nM
EC50 [2, 22]: 3720 nM
EC50 [2, 23]: 7500 nM
EC50 [2, 24]: 1110 nM
EC50 [2, 25]: 5110 nM
EC50 [2, 26]: 8910 nM
EC50 [2, 27]: 3510 nM
EC50 [3, 28]: 2.81 µM
EC50 [3, 29]: 5.46 µM
EC50 [3, 30]: > 10 µM
EC50 [3, 31]: 1.59 µM
EC50 [4, 32]: 631 nM
EC50 [4, 33]: 3680 nM
EC50 [4, 34]: > 10000 nM
EC50 (MDA-MB-231-Luc): 4060 nM
EC50 (CAMA1): 3090 nM
EC50 (ZR-75-1): 4030 nM
EC50 (MCF7): 6640 nM
EC50 (DU4475): 3220 nM
EC50 (HCC1599): 2190 nM
EC50 (T47D): 4620 nM
EC50 (BT-549): 4500 nM
EC50 (CLK2): 8.9 nM
EC50 [5, 35]: 2.06 µM
EC50 [5, 36]: 6.22 µM
EC50 [5, 37]: 1.4 µM
EC50 [5, 38]: 7.22 µM
EC50 [5, 39]: 0.926 µM
EC50 [5, 40]: 1.51 µM
EC50 [6, 41]: 5780 nM
EC50 [6, 42]: 3980 nM
EC50 [6, 43]: 2850 nM
EC50 [6, 44]: 9120 nM
EC50 [6, 45]: 6020 nM
EC50 [7, 46]: 3.18 µM
EC50 [7, 47]: 1.97 µM
EC50 [7, 48]: 5.6 µM
EC50 [7, 49]: 1.41 µM
SMILES: CN(C)C1CCN(c2cc(C(=O)Nc3ncc4ccc(-c5cn(C)nn5)cc4n3)ccn2)CC1 [Compound 80]
EC50 (all 50 cell lines): 4070 nM
